Earlier results, collected in patent US20260151341A1, “NOVEL AMORPHOUS ACTIVE PHARMACEUTICAL INGREDIENTS” (DISRUPTIVE PHARMA AB, priority 2020, published 2026).

Settings: mesoporous silica, study referred to by Gupte et al.

Q: For `CCC(C)n1ncn(-c2ccc(N3CCN(c4ccc(OCC5COC(Cn6cncn6)(c6ccc(Cl)cc6Cl)O5)cc4)CC3)cc2)c1=O` (stereo not shown) [Itraconazole, itraconazole], which “loading at which stabilized by silica” value is on record?
A: more than 32 % by weight
